Reference: publication PMC4436593, “Endoplasmic reticulum stress-independent activation of unfolded protein response kinases by a small molecule ATP-mimic” (eLife, 2015)

How the values were obtained:
PERK (535–1093 Δ660–868) = target: T1, PERK (535–1093 Δ660–868) (Homo sapiens, UniProt Q9NZJ5, DEL660-868); test: In vitro PERK activation assay (rate of eIF2α phosphorylation by dephosphorylated tag-free PERK cytosolic domain); type: biochemical
T1 construct: GST (N, cleaved yes); made in house; host or cells: E. coli BL21 star (DE3), co-expressed with lambda phosphatase
T1 sequence (Q9NZJ5 with tags, fused parts or gaps DEL660-868): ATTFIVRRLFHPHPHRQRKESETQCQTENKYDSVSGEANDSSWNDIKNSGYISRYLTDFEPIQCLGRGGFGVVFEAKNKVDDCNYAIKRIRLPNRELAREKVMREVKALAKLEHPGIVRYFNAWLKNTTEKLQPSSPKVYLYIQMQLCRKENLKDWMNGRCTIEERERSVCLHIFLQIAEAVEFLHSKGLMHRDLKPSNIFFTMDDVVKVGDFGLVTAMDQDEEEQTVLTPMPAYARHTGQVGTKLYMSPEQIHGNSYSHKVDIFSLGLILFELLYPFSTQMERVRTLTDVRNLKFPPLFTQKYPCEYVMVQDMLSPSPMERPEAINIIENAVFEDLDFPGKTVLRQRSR
Text: To address directly whether PERK activation resulted from IPA binding to PERK itself, we recombinantly expressed the cytosolic portion of human PERK and eIF2α, the only known PERK substrate, and reconstituted the phosphorylation reaction in vitro. To this end, the cytosolic portion of PERK was dephosphorylated and then proteolytically severed and chromatographically separated from its glutathione S-transferase tag, known to promote-constitutive multimerization. The resulting PERK cytosolic fragment was responsive to activation, by contrast to the constitutively active, phosphorylated PERK-GST fusion protein assayed in Figure 4—figure supplement 1.
Full-length cytosolic human PERK was codon-optimized for E. coli expression by Genewiz Inc. A construct was then cloned into a Pgex-6p-2 vector for expression using two rounds of In-Fusion cloning (Clontech) (535–1093 Δ660–868). The cytosolic portion of PERK, lacking the unstructured loop region (amino acids 535–1093 Δ660–868) was then co-expressed with a tagless lambda phosphatase to produce a fully dephosphorylated PERK protein in BL21 star (DE3) (Life Technologies) ([Dar et al., 2008]). Cells were grown to an OD600 of 0.5 before induction with 0.1 mM IPTG at 15°C for 25 hr. Cells were harvested and lysed using AVESTIN Emulsiflex-C3 in a buffer containing 50 mM Tris-HCl, pH 8.0, 500 mM NaCl, 10% glycerol, 5 mM TCEP (buffer A), and EDTA-free COMPlete protease inhibitor cocktail (Roche). Lysate was cleared by centrifugation at 100,000×g before batch binding to a GST-Sepharose resin. The resin was washed 5× times with buffer A, and on-column tag cleavage was preformed using PreScission protease (GE Healthcare). The protein was loaded onto a HiTrap Q HP column to remove remaining protease. The PERK (535–1093 Δ660–868) protein was then concentrated and fractionated on a Superdex 200 GL (GE Healthcare) to remove uncleaved GST-PERK protein.
PERK activation was measured using PERK (535–1093 Δ660–868) in a buffer containing 20 mM Tris-HCl, 150 mM NaCl, 4 mM MgCl2, 5 mM TCEP, 1% glycerol, pH 8.0. PERK concentration was 1 μM, and activity was measured at 30°C. PERK was pre-incubated with 50 μM of cold ATP in the presence or absence of IPA or IPAx. The reaction was then initiated by adding S. cerevisiae eIF2α (1–180) and 0.2 mCi γ-[^32P]-ATP. The reaction was monitored over a time course of 30 min, during which 1/6 of the reaction volume was removed at 0.5, 1, 5, 10, 20, and 30 min and stopped in Laemmli buffer supplemented with 50 mM EDTA. […] Gels were quantified using ImageQuant software and data were processed using SigmaPlot software package. Rates were determined using non-linear regression. Experiments were performed 3 times, and mean errors were determined.

[1] = target: T2, PERK cytosolic domain (535–1093 Δ660–868) (Homo sapiens, UniProt Q9NZJ5, DEL660-868); test: In vitro PERK cross-linking assay; type: biochemical; conditions: PERK 2 μM; IPAx 50 μM
T2 construct: GST (N, cleaved yes); made in house; host or cells: E. coli BL21 star (DE3), co-expressed with lambda phosphatase
T2 sequence (Q9NZJ5 with tags, fused parts or gaps DEL660-868): T1 sequence (Q9NZJ5 with tags, fused parts or gaps DEL660-868)
Protocol: A solution of PERK cytosolic domain (535–1093 Δ660–868) (2 μM) was incubated with IPA or IPAx for 15 min before the addition of 250 μM of the amino group-reactive cross-linking agent bis[sulfosuccinimidyl] […] (BS2g-d0, Thermo Scientific). After 30-min incubation at room temperature Tris-HCl pH 7.5 was added to a final concentration of 55 mM. Samples were then boiled in Laemmli sample buffer and loaded into an Any kD Mini-protean TGX gel (Bio Rad). Cross-linked protein was visualized using Colloidal Coomassie G-250 stain.

Row | SMILES | fold change in rate of eIF2α phosphorylation by PERK (maximal activation) (PERK (535–1093 Δ660–868); 0.5 μM (500 nM) IPA, normalized to DMSO control, PERK 1 μM) | fold change in rate of eIF2α phosphorylation by PERK (inhibitory concentration) (PERK (535–1093 Δ660–868); 3 μM IPA, normalized to DMSO control) | PERK oligomerization (cross-linked dimers, trimers, tetramers) [1] | effect on the rate of PERK activity (PERK (535–1093 Δ660–868); IPAx 20 μM) | PERK activation in vitro (PERK (535–1093 Δ660–868); IPAx 0.3 and 0.5 μM, normalized to DMSO control)
1 | CSc1ccc(NC(=O)Nc2ccc(Nc3nccc(Nc4cc(C5CC5)[nH]n4)n3)cc2)cc1 [IPA] | 3.3 fold | 0.31 fold | significantly increased PERK oligomerization |  | 
2 | CSc1ccc(NC(=O)Nc2ccc(Nc3nccc(Nc4cc(C5CC5)n(C)n4)n3)cc2)cc1 [IPAx] |  |  | showed no effect | showed no effect | No activation was observed
